The results in this text go back to the supplement of paper PMC10949913.

Holding throughout (details): 48 h
Test [1] concerns CU-ACC2. Put plainly: AC50 viability; higher = less potent. In a few lines: (§1)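 Three adrenocortical carcinoma cell lines were seeded at 500–1,000 cells/well in 5 µL medium in 1,536-well plates. 23 nL of each MIPE 5.0 library compound was added at 11 concentrations. After 48 h (per the protocol name), CellTiter-Glo was added for 15 minutes at room temperature and luminescence was read. Signals were normalised per plate to vehicle and empty-well controls. AC50 and area under the curve came from fitted concentration-response curves, keeping only inhibitory or non-responding curve classes.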

The subject of test [2] is NCI-H295R. Put plainly: AC50 viability; higher = less potent. In a few lines: as §1
Test [3] relates to CU-ACC1. Put plainly: AC50 viability; higher = less potent. In a few lines:
as §1

The test system of test [4] is CU-ACC2. Put plainly: area under concentration-response curve (viability) (AUC (a.u.)); higher = less active. In a few lines: as §1
The subject of test [5] is NCI-H295R. The test is described as above. In a few lines:
as §1

In test [6] the test system is CU-ACC1. The test is described as above. In a few lines:
as §1

Take `CC[C@H](CC#N)OC(=O)N[C@@H](C)c1cccc(NC(=O)Nc2ccc(-c3cnco3)c(OC)c2)c1`: the AC50 viability amounted to 5.9 µM in the test on CU-ACC2 [1], 2.09 µM with NCI-H295R [2] and 5.9 µM in the test with CU-ACC1 [3]. In addition, the “area under concentration-response curve” value was determined as 530 in the test on CU-ACC2 [4], 489 in the test on NCI-H295R [5] and 456 with CU-ACC1 [6].

For the compound `COc1nc(OCc2cccc(-c3ccccc3)c2C)ccc1CNCCNC(C)=O`, the AC50 viability in the test on CU-ACC2 [1] was found to be 16.6 µM; in the test on NCI-H295R [2] it was 5.9 µM; in the test with CU-ACC1 [3], 11.8 µM. Moreover, the “area under concentration-response curve” value in the test with CU-ACC2 [4] was found to be 379; with NCI-H295R [5] it was 412; in the test with CU-ACC1 [6], 390.

Turning to `C[N]1C=NC=C1C(N)(C2=CC=C(Cl)C=C2)C3=CC\4=C(C=C3)N(C)C(=O)\C=C4C5=CC(=CC=C5)Cl` (stereo unspecified), the AC50 viability with CU-ACC2 [1] worked out at 11.8 µM; in the test with NCI-H295R [2] it was 6.61 µM; with CU-ACC1 [3], 11.8 µM. For the same compound, the entries for the “area under concentration-response curve” value with CU-ACC2 [4], with NCI-H295R [5] and in the test on CU-ACC1 [6] were 298, 397 and 336, respectively.

Regarding `CC1(C)CC\C2=C(/O1)C3=C(C=CC=C3)C(=O)C2=O`, the AC50 viability in the test with CU-ACC2 [1] was 16.6 µM; in the test on NCI-H295R [2], 33.2 µM; in the test with CU-ACC1 [3], 6.61 µM. Also, the “area under concentration-response curve” value in the test with CU-ACC2 [4] was found to be 515; with NCI-H295R [5], 535; in the test with CU-ACC1 [6], 333.

On to `COc1ccc(F)c(F)c1C(=O)c1cnc(NC2CCN([S+](C)(=O)[O-])CC2)nc1N`, for which the AC50 viability was 1.48 µM in the test on CU-ACC2 [1], 4.68 µM in the test with NCI-H295R [2] and 2.35 µM in the test with CU-ACC1 [3]. The figures for the “area under concentration-response curve” value in the test with CU-ACC2 [4], in the test with NCI-H295R [5] and in the test on CU-ACC1 [6] were 364, 435 and 409, respectively.

On to `CN(C)c1ccc(C(=O)NCCCCCCC(=O)NO)cc1`, for which the AC50 viability with CU-ACC2 [1] came to 4.17 µM; with NCI-H295R [2] it was 5.25 µM; with CU-ACC1 [3] it was 4.68 µM. Besides, the “area under concentration-response curve” value in the test on CU-ACC2 [4] was 450; in the test with NCI-H295R [5], 444; with CU-ACC1 [6], 348.

Consider `COc1cc(N2CCC(N3CCN(C)CC3)CC2)ccc1Nc1ncc(Cl)c(Nc2ccccc2[S+](=O)([O-])C(C)C)n1`, for which the AC50 viability in the test on CU-ACC2 [1] is 5.25 µM; in the test on NCI-H295R [2], 2.95 µM; with CU-ACC1 [3], 11.8 µM. The “area under concentration-response curve” value in the test on CU-ACC2 [4] came out at 479; in the test with NCI-H295R [5], 432; in the test on CU-ACC1 [6] it was 436.

Turning to `C[C@@H]1C[C@@H]([C@H](O)CC2CC(=O)NC(=O)C2)C(=O)[C@@H](C)C1`, the AC50 viability in the test on CU-ACC2 [1] was found to be 0.59 µM; in the test with NCI-H295R [2], 2.95 µM; in the test with CU-ACC1 [3] it was 1.05 µM. Besides, the entries for the “area under concentration-response curve” value with CU-ACC2 [4], in the test with NCI-H295R [5] and with CU-ACC1 [6] were 333, 405 and 345, respectively.

In the case of `NC[C@@](O)(c1ccc(Cl)cc1)c1ccc(-c2cn[nH]c2)cc1`, the figures for the AC50 viability in the test with CU-ACC2 [1], with NCI-H295R [2] and with CU-ACC1 [3] were 14.8 µM, 8.33 µM and 7.42 µM, respectively. Moreover, the “area under concentration-response curve” value is 529 in the test on CU-ACC2 [4], 485 in the test with NCI-H295R [5] and 463 with CU-ACC1 [6].

With `COc1cc(C)c(Sc2cnc(NC(=O)c3ccc(CNC(C)C(C)(C)C)cc3)s2)cc1C(=O)N1CCN(C(C)=O)CC1` (stereo unspecified), the AC50 viability in the test on CU-ACC2 [1] came out at 16.6 µM; with NCI-H295R [2], 9.34 µM; with CU-ACC1 [3], 18.6 µM. Also, the “area under concentration-response curve” value stood at 443 with CU-ACC2 [4], 354 in the test on NCI-H295R [5] and 440 in the test on CU-ACC1 [6].

On to `Cc1ccc([S+](=O)([O-])Nc2cc(C(F)(F)F)ccc2C(=O)Nc2nc(-c3ccccc3)cs2)cc1`, for which the AC50 viability is 8.33 µM with CU-ACC2 [1], 8.33 µM in the test with NCI-H295R [2] and 10.5 µM with CU-ACC1 [3]. In addition, the “area under concentration-response curve” value in the test on CU-ACC2 [4] amounted to 499; with NCI-H295R [5] it was 479; in the test with CU-ACC1 [6], 436.

For `NCCCC[C@H](NC(=O)[C@@H](NC(=O)[C@H](Cc1c[nH]c2ccccc12)NC(=O)[C@H](CCCCN)NC(=O)[C@H](CCCCN)NC(=O)[C@H](Cc1c[nH]c2ccccc12)NC(=O)[C@H](Cc1c[nH]c2ccccc12)NC(=O)[C@H](CCCCN)NC(=O)[C@@H](N)CCCCN)C(c1ccccc1)c1ccccc1)C(N)=O`, the AC50 viability with CU-ACC2 [1] was 3.72 µM; in the test with NCI-H295R [2], 9.34 µM; with CU-ACC1 [3], 10.5 µM. The “area under concentration-response curve” value with CU-ACC2 [4] is 301; in the test with NCI-H295R [5], 310; in the test with CU-ACC1 [6] it was 301.

Take `N/C(=N\C(=O)c1nc(Cl)c(N)nc1N)NCc1ccccc1`: the values for the AC50 viability in the test with CU-ACC2 [1], with NCI-H295R [2] and with CU-ACC1 [3] were 8.33 µM, 11.8 µM and 10.5 µM, respectively. In addition, the “area under concentration-response curve” value was 370 in the test with CU-ACC2 [4], 396 in the test with NCI-H295R [5] and 322 with CU-ACC1 [6].

On to `C=CC(=O)Nc1cccc(Oc2nc(Nc3ccc(N4CCN(C)CC4)cc3)nc3ccsc23)c1`, for which the AC50 viability in the test with CU-ACC2 [1] turned out to be 8.33 µM; in the test on NCI-H295R [2], 5.9 µM; with CU-ACC1 [3], 5.9 µM. The “area under concentration-response curve” value came to 330 with CU-ACC2 [4], 337 with NCI-H295R [5] and 277 in the test with CU-ACC1 [6].

In the case of `O=C(NO)c1cnc(N2C[C@H]3C[C@@H]2CN3c2cc(C(F)(F)F)ccn2)nc1`, the figures for the AC50 viability in the test with CU-ACC2 [1], in the test on NCI-H295R [2] and in the test on CU-ACC1 [3] were 10.5 µM, 1.66 µM and 7.42 µM, respectively. Moreover, the “area under concentration-response curve” value in the test with CU-ACC2 [4] is 538; in the test with NCI-H295R [5], 488; with CU-ACC1 [6], 385.

In the case of `Cc1cc(Nc2cc(N3CCN(C)CC3)nc(/C=C/c3ccccc3)n2)n[nH]1`, the AC50 viability was found to be 13.2 µM in the test with CU-ACC2 [1], 6.61 µM with NCI-H295R [2] and 11.8 µM in the test with CU-ACC1 [3]. For the same compound, the “area under concentration-response curve” value with CU-ACC2 [4] was 369; in the test with NCI-H295R [5] it was 414; with CU-ACC1 [6], 401.

With `COc1cc2c(Nc3ccc(Cl)c(Cl)c3F)ncnc2cc1OC[C@@H]1C[C@@H]2CN(C)C[C@@H]2C1`, the AC50 viability with CU-ACC2 [1] was 13.2 µM; in the test on NCI-H295R [2], 14.8 µM; in the test on CU-ACC1 [3], 9.34 µM. Also, the “area under concentration-response curve” value in the test on CU-ACC2 [4] came out at 449; with NCI-H295R [5] it was 430; with CU-ACC1 [6], 407.

As for `COc1cc(N2CCC(N)CC2)ccc1Nc1ncc(Cl)c(-c2c[nH]c3ccccc23)n1`, the values for the AC50 viability in the test with CU-ACC2 [1], in the test on NCI-H295R [2] and with CU-ACC1 [3] were 5.9 µM, 1.18 µM and 9.34 µM, respectively. The “area under concentration-response curve” value in the test on CU-ACC2 [4] stood at 357; in the test with NCI-H295R [5], 318; in the test with CU-ACC1 [6] it was 386.

For the compound `CN1CC[C@H]([C@@H](O)C1)C2=C(O)C=C(O)C3=C2O\C(=C/C3=O)C4=CC=CC=C4Cl`, the AC50 viability with CU-ACC2 [1] turned out to be 0.417 µM; with NCI-H295R [2] it was 1.32 µM; with CU-ACC1 [3], 0.833 µM. Besides, the “area under concentration-response curve” value with CU-ACC2 [4] was determined as 392; in the test with NCI-H295R [5], 352; in the test with CU-ACC1 [6], 346.

Consider `CCC1=C2C=C(OC(=O)N3CCC(CC3)N4CCCCC4)C=CC2=NC\5=C1CN6C(=O)\C7=C(/C=C56)[C@@](O)(CC)C(=O)OC7`, for which the AC50 viability in the test on CU-ACC2 [1] is 2.95 µM; in the test with NCI-H295R [2], 13.2 µM; in the test on CU-ACC1 [3] it was 13.2 µM. For the same compound, the “area under concentration-response curve” value with CU-ACC2 [4] came to 426; in the test on NCI-H295R [5], 443; in the test with CU-ACC1 [6], 382.

Regarding `COc1cc(N2CCC(N3CCN(C)CC3)CC2)ccc1Nc1ncc(Cl)c(Nc2ccccc2P(C)(C)=O)n1`, the AC50 viability worked out at 1.32 µM in the test with CU-ACC2 [1], 2.63 µM in the test with NCI-H295R [2] and 2.09 µM with CU-ACC1 [3]. Also, the “area under concentration-response curve” value came to 398 in the test with CU-ACC2 [4], 409 in the test on NCI-H295R [5] and 383 with CU-ACC1 [6].
